Measured values published in PMC11084212, “Nontraditional Roles of Magnesium Ions in Modulating Sav2152: Insight from a Haloacid Dehalogenase-like Superfamily Phosphatase from Staphylococcus aureus” (International Journal of Molecular Sciences, 2024).

Target: T1, Sav2152 (Staphylococcus aureus, UniProt A0A0H3JWK0)
T1 construct: monomer; C-terminus (res. 234-285) disordered in crystal
Assay: EnzChek phosphatase assay, DiFMU release
Type: biochemical
Conditions: 100 uM DiFMUP, 10 uM protein, 1 mM Mg2+, 100 mM NaCl, 25 mM Tris-HCl pH 7.0

T1 sequence (A0A0H3JWK0 entry or part of it): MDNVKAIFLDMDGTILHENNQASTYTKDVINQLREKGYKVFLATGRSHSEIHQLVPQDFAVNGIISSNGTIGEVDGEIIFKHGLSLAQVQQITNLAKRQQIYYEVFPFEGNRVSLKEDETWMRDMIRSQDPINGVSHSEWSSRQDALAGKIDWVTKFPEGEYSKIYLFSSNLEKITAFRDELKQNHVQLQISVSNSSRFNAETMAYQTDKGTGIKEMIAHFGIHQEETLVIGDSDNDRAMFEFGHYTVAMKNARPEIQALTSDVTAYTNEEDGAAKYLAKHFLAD

In the case of Cc1cc(=O)oc2c(F)c(OP(=O)(O)O)c(F)cc12 [DiFMUP], the “EnzChek phosphatase assay, DiFMU release” value is reported as “enzymatic activity of this protein was investigated using a simple phosphatase assay kit with DiFMUP”.
